This data set concerns mice ears. The experiment in a line: Example 4: effects of test samples on ear thickness. Particulars: 0.1% in 25% DMSO + 75% ethanol, 10 μl on days 0, 1, 2. The format is in vivo, mice (FVB strain). How it is done: Control thickness of mice ears (FVB strain, female, 7 weeks of age, n=3/group) was measured with a thickness gauge (Mitsutoyo Corp.) on day 0. After measuring the thickness of both ears, 10 μl of test sample solution was applied to the left ear and 10 μl of solvent was applied to the right ear. After 24 hours (day 1), ear thickness was measured and a second dose administered (left ear: test solution, right ear: solvent). After a second 24 hours (day 2), ear thickness was measured and a third dose administered (left ear: test solution, right ear: solvent).

The structures appear in SMILES notation.

For the compound `O=C1C(=Cc2ccc(-c3ccccc3[N+](=O)[O-])o2)C(=O)N(c2ccccc2)C(=S)N1c1ccccc1` [Ucf-101], the “Left ear thickness (mean)” value (day 0 (before application)) was 25.7 ×0.01 mm, the “Left ear thickness (mean)” value (day 1) came to 26.3 ×0.01 mm, the “Left ear thickness (mean)” value (day 2) is reported as 27.3 ×0.01 mm and the “Left ear thickness (mean)” value (day 3) is 28.3 ×0.01 mm.

The values above are taken from patent US20050250799A1, “Protease inhibitors for treatment of wrinkles” (priority 2004, published 2005).
